Assay results from patent US11142519B2, “Pesticidally active pyrazole derivatives” (SYNGENTA PARTICIPATIONS AG, priority 2017, dated 2021).

Legend:
Format in all cases: in vivo
Spodoptera littoralis = Spodoptera littoralis (Egyptian cotton leaf worm) cotton leaf disc spray test; conditions: foliar, 72 h, application rate of 200 ppm, L1 larvae, 3 days after infestation, read-out: control (at least one of mortality, anti-feedant effect, growth inhibition)
Experimental: Spodoptera littoralis (Egyptian cotton leaf worm)
Cotton leaf discs were placed on agar in 24-well microtiter plates and sprayed with aqueous test solutions prepared from 10,000 ppm DMSO stock solutions. After drying the leaf discs were infested with five L1 larvae. The samples were assessed for mortality, anti-feedant effect, and growth inhibition in comparison to untreated samples 3 days after infestation. Control of Spodoptera littoralis by a test sample is when at least one of mortality, anti-feedant effect, and growth inhibition is higher than the untreated sample.

Plutella xylostella = Plutella xylostella (Diamond back moth) artificial diet test; conditions: 120 h, application rate of 200 ppm, L2 larvae, 5 days after infestation, read-out: effect in at least one of the two categories (mortality or growth inhibition)
Experimental: Plutella xylostella (Diamond back moth):
24-well microtiter plates with artificial diet were treated with aqueous test solutions prepared from 10,000 ppm DMSO stock solutions by pipetting. After drying, the plates were infested with L2 larvae (10 to 15 per well). The samples were assessed for mortality and growth inhibition in comparison to untreated samples 5 days after infestation. The following compounds gave an effect of at least 80% in at least one of the two categories (mortality or growth inhibition) at an application rate of 200 ppm: 1, 2, 3, 4, 7 and 10.

Diabrotica balteata = Diabrotica balteata (Corn root worm) maize sprout spray test; conditions: 96 h, application rate of 200 ppm, L2 larvae, 4 days after infestation, read-out: effect in at least one of the two categories (mortality or growth inhibition)
Experimental: Diabrotica balteata, (Corn root worm)
Maize sprouts, placed on an agar layer in 24-well microtiter plates were treated with aqueous test solutions prepared from 10,000 ppm DMSO stock solutions by spraying. After drying, the plates were infested with L2 larvae (6 to 10 per well). The samples were assessed for mortality and growth inhibition in comparison to untreated samples 4 days after infestation. The following compounds gave an effect of at least 80% in at least one of the two categories (mortality or growth inhibition) at an application rate of 200 ppm: 1, 2, 3 and 7.

Thrips tabaci = Thrips tabaci (Onion thrips) sunflower leaf disc spray test; conditions: foliar, 144 h, application rate of 200 ppm, population of mixed ages, 6 days after infestation
Experimental: Thrips tabaci (Onion thrips):
Sunflower leaf discs were placed on agar in 24-well microtiter plates and sprayed with aqueous test solutions prepared from 10,000 ppm DMSO stock solutions. After drying the leaf discs were infested with a thrips population of mixed ages. The samples were assessed for mortality 6 days after infestation.

Euschistus heros = Euschistus heros (Neotropical Brown Stink Bug) soybean leaf spray test; conditions: 120 h, application rate of 200 ppm, N2 nymphs, 5 days after infestation, read-out: effect in at least one of the two categories (mortality or growth inhibition)
Experimental: Euschistus heros (Neotropical Brown Stink Bug)
Soybean leaves on agar in 24-well microtiter plates were sprayed with aqueous test solutions prepared from 10,000 ppm DMSO stock solutions. After drying the leaves were infested with N2 nymphs. The samples were assessed for mortality and growth inhibition in comparison to untreated samples 5 days after infestation. The following compounds gave an effect of at least 80% in at least one of the two categories (mortality or growth inhibition) at an application rate of 200 ppm: 1, 3 and 7.

Tetranychus urticae = Tetranychus urticae (Two-spotted spider mite) bean leaf disc spray test; conditions: foliar, 192 h, application rate of 200 ppm, 8 days after infestation, read-out: mortality on mixed population (mobile stages)
Experimental: Tetranychus urticae (Two-spotted spider mite):
Bean leaf discs on agar in 24-well microtiter plates were sprayed with aqueous test solutions prepared from 10,000 ppm DMSO stock solutions. After drying the leaf discs were infested with a mite population of mixed ages. The samples were assessed for mortality on mixed population (mobile stages) 8 days after infestation.

Cn1nc(C(F)(F)C(F)(F)F)c(OC(F)F)c1-n1cc(-c2cc(C(=O)NC3CC3)c(Cl)s2)nn1 [Example 7, 2-chloro-N-cyclopropyl-5-[1-[4-(difluoromethoxy)-2-methyl-5-(1,1,2,2,2-pentafluoroethyl)pyrazol-3-yl]triazol-4-yl]thiophene-3-carboxamide]
≥ 80%: percent control (mortality, anti-feedant effect or growth inhibition) at 200 ppm (Spodoptera littoralis) | percent effect (mortality or growth inhibition) at 200 ppm (Plutella xylostella) | percent effect (mortality or growth inhibition) at 200 ppm (Diabrotica balteata) | mortality at 200 ppm (Thrips tabaci) | percent effect (mortality or growth inhibition) at 200 ppm (Euschistus heros)

Cn1nc(C(F)(F)C(F)(F)F)c(OC(F)F)c1-n1cc(-c2cc(C(=O)NC3(C#N)CC3)c(C#N)s2)nn1 [Example 4, 2-cyano-N-(1-cyanocyclopropyl)-5-[1-[4-(difluoromethoxy)-2-methyl-5-(1,1,2,2,2-pentafluoroethyl)pyrazol-3-yl]triazol-4-yl]thiophene-3-carboxamide]
≥ 80%: percent control (mortality, anti-feedant effect or growth inhibition) at 200 ppm (Spodoptera littoralis) | percent effect (mortality or growth inhibition) at 200 ppm (Plutella xylostella) | mortality at 200 ppm (Thrips tabaci) | mortality at 200 ppm (Tetranychus urticae)

CN(C(=O)c1cc(-c2cn(-c3c(OC(F)F)c(C(F)(F)C(F)(F)F)nn3C)nn2)sc1C#N)C1CC1 [Example 2, 2-cyano-N-cyclopropyl-5-[1-[4-(difluoromethoxy)-2-methyl-5-(1,1,2,2,2-pentafluoroethyl)pyrazol-3-yl]triazol-4-yl]-N-methyl-thiophene-3-carboxamide]
≥ 80%: percent control (mortality, anti-feedant effect or growth inhibition) at 200 ppm (Spodoptera littoralis) | percent effect (mortality or growth inhibition) at 200 ppm (Plutella xylostella) | percent effect (mortality or growth inhibition) at 200 ppm (Diabrotica balteata) | mortality at 200 ppm (Thrips tabaci) | mortality at 200 ppm (Tetranychus urticae)

Cn1nc(C(F)(F)C(F)(F)F)c(OC(F)F)c1-n1cc(-c2cc(C(=O)NC3CC3)c(C#N)s2)nn1 [Example 1, 2-cyano-N-cyclopropyl-5-[1-[4-(difluoromethoxy)-2-methyl-5-(1,1,2,2,2-pentafluoroethyl)pyrazol-3-yl]triazol-4-yl]thiophene-3-carboxamide]
≥ 80%: percent control (mortality, anti-feedant effect or growth inhibition) at 200 ppm (Spodoptera littoralis) | percent effect (mortality or growth inhibition) at 200 ppm (Plutella xylostella) | percent effect (mortality or growth inhibition) at 200 ppm (Diabrotica balteata) | mortality at 200 ppm (Thrips tabaci) | mortality at 200 ppm (Tetranychus urticae) | percent effect (mortality or growth inhibition) at 200 ppm (Euschistus heros)

CCN(C(=O)c1cc(-c2cn(-c3c(OC(F)F)c(C(F)(F)C(F)(F)F)nn3C)nn2)sc1C#N)C1CC1 [Example 3, 2-cyano-N-cyclopropyl-5-[1-[4-(difluoromethoxy)-2-methyl-5-(1,1,2,2,2-pentafluoroethyl)pyrazol-3-yl]triazol-4-yl]-N-ethyl-thiophene-3-carboxamide]
≥ 80%: percent control (mortality, anti-feedant effect or growth inhibition) at 200 ppm (Spodoptera littoralis) | percent effect (mortality or growth inhibition) at 200 ppm (Plutella xylostella) | percent effect (mortality or growth inhibition) at 200 ppm (Diabrotica balteata) | mortality at 200 ppm (Thrips tabaci) | mortality at 200 ppm (Tetranychus urticae) | percent effect (mortality or growth inhibition) at 200 ppm (Euschistus heros)

Cn1nc(C(F)(F)C(F)(F)F)c(OC(F)F)c1-n1cc(-c2cc(C(=O)NC3(C#N)CC3)c(Cl)s2)nn1 [Example 10, 2-chloro-N-(1-cyanocyclopropyl)-5-[1-[4-(difluoromethoxy)-2-methyl-5-(1,1,2,2,2-pentafluoroethyl)pyrazol-3-yl]triazol-4-yl]thiophene-3-carboxamide]
≥ 80%: percent control (mortality, anti-feedant effect or growth inhibition) at 200 ppm (Spodoptera littoralis) | percent effect (mortality or growth inhibition) at 200 ppm (Plutella xylostella) | mortality at 200 ppm (Thrips tabaci)
